For the experiment, the target named is T1, cdc42 (Homo sapiens, UniProt P60953).
T1 construct: made in house
Description: Cdc42 GTP Binding Domain Inhibition Assay. As to conditions: read-out: Cdc42: % inh. Here is the method: Protocol for Cdc42 and Rheb GTP Binding Domain Inhibition Assay
The following method was developed as specific assay for cdc42 and Rheb proteins.
• 25 mM Tris-HCl, pH 7.4 • 27 mM KCl • 137 mM NaCl • 1 mM MgCl2 • 1 mM DTT Buffer-II: • 50 mM Tris-HCl, pH 7.0 • 1 mM MgCl2 • 1 mM DTT
The small GTPases proteins cdc42 and Rheb were expressed as His-tagged proteins. For the assay, the cdc42 and Rheb purified small GTPases proteins were diluted in Buffer-I or Buffer-II to a final concentration of 10-30 μg/mL. 200 μL of each diluted protein was added to a nickel-coated 96-well plate and incubated overnight at […]. Then the protein solution was discarded and 200 μL of Buffer-I or Buffer-II was added to each well in the presence of 1% DMSO. Compounds to be tested were added to the protein-coated wells at final concentration of 20 μM, and incubated for 3 hours at room temperature with and without 10-30 μg/mL of Sos added to the final hour of the incubation. When performing IC50 measurements a serial dilution of all tested concentrations was added. Then Cy3-GTP or Cy5-GTP was added to each well to a final concentration of 100 nM. The labeled GTP was incubated for 45 minutes at room temperature. Following GTP incubation, wells were washed 3× in Buffer-I or Buffer-II and 200 μL of Buffer-I or Buffer-II was added to each well. Following washes, the amount of bound labeled-GTP was measured using a SpectraMax M3 (Molecular Devices).

Experimental findings from patent publication US12459951B2, “Compounds that interact with RAS superfamily proteins for treatment of cancers, inflammatory diseases, rasopathies, and fibrotic disease” (SHY Therapeutics, LLC, priority 2022, dated 2025) are described below.

The structures appear in SMILES notation.

T1 sequence (P60953 whole entry): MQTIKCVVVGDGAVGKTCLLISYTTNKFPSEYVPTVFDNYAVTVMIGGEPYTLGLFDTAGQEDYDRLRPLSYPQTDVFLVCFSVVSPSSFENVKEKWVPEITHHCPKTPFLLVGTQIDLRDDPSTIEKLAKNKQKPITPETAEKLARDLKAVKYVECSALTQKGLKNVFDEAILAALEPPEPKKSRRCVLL

Consider `Cc1c(-c2ccn(C(C)C)n2)cn2nc(-c3nccn3C)nc(Nc3ncco3)c12` [Compound 60, N-(6-(1-Isopropyl-1H-pyrazol-3-yl)-5-methyl-2-(1-methyl-1H-imidazol-2-yl)pyrrolo[2,1-f][1,2,4]triazin-4-yl)oxazol-2-amine], for which the inhibition at 20 µM lay in the range of 1 to 25%.

With `COc1cccc(-c2cn3nc(-c4nccn4C)nc(N[C@H]4C[C@H](OC)C4)c3c2-c2ccn(C)n2)c1F` [Compound 47, 6-(2-Fluoro-3-methoxyphenyl)-N-((1r,3r)-3-methoxycyclobutyl)-2-(1-methyl-1H-imidazol-2-yl)-5-(1-methyl-1H-pyrazol-3-yl)pyrrolo[2,1-f][1,2,4]triazin-4-amine], the inhibition at 20 µM is 1 to 25%.

`COc1cc(Nc2nc(-c3nccn3C)nn3cc(-c4ccn(C(C)C)n4)c(C)c23)n[nH]1` [Compound 51, 6-(1-Isopropyl-1H-pyrazol-3-yl)-N-(5-methoxy-1H-pyrazol-3-yl)-5-methyl-2-(1-methyl-1H-imidazol-2-yl)pyrrolo[2,1-f][1,2,4]triazin-4-amine]: the inhibition at 20 µM lay in the range of 50 to 75%.

As for `Cc1c(-c2ccn(C(C)C)n2)cn2nc(-c3nccn3C)nc(Nc3nc(C4CC4)no3)c12` [Compound 70, 3-Cyclopropyl-N-(6-(1-isopropyl-1H-pyrazol-3-yl)-5-methyl-2-(1-methyl-1H-imidazol-2-yl)pyrrolo[2,1-f][1,2,4]triazin-4-yl)-1,2,4-oxadiazol-5-amine], the inhibition at 20 µM was in the range of 1 to 25%.

With `COc1cc(Nc2nc(-c3nccn3C)nn3cc(-c4ccncc4)c(C)c23)ncn1` [Compound 49, N-(6-Methoxypyrimidin-4-yl)-5-methyl-2-(1-methyl-1H-imidazol-2-yl)-6-(pyridin-4-yl)pyrrolo[2,1-f][1,2,4]triazin-4-amine], the inhibition at 20 µM lay in the range of 1 to 25%.

On to `COc1cccc(-c2cn3nc(-c4nccn4C)nc(N[C@@H]4CC[C@@H](OC)C4)c3c2-c2ccccc2)c1F` (racemic) [Compound 43, rac 6-(2-Fluoro-3-methoxyphenyl)-N-((1R,3R)-3-methoxycyclopentyl)-2-(1-methyl-1H-imidazol-2-yl)-5-phenylpyrrolo[2,1-f][1,2,4]triazin-4-amine], for which the inhibition at 20 µM fell in the range of 1 to 25%.

As to `COc1cc(Nc2nc(-c3nccn3C)nn3cc(-c4cccc(OC)n4)c(C)c23)ncn1` [Compound 65, 6-(6-Methoxypyridin-2-yl)-N-(6-methoxypyrimidin-4-yl)-5-methyl-2-(1-methyl-1H-imidazol-2-yl)pyrrolo[2,1-f][1,2,4]triazin-4-amine], the inhibition at 20 µM lay within 26 to 49%.

For the molecule `COc1cccc(-c2cn3nc(-c4nccn4C)nc(N[C@@H]4CC[C@@H](OC)C4)c3c2-c2ccccn2)c1F` (racemic) [Compound 46, rac 6-(2-Fluoro-3-methoxyphenyl)-N-((1R,3R)-3-methoxycyclopentyl)-2-(1-methyl-1H-imidazol-2-yl)-5-(pyridin-2-yl)pyrrolo[2,1-f][1,2,4]triazin-4-amine], the inhibition at 20 µM fell in the range of 50 to 75%.

On to `COc1ccc(Nc2nc(-c3nccn3C)nn3cc(-c4ccn(C(C)C)n4)c(C)c23)nn1` [Compound 74, 6-(1-Isopropyl-1H-pyrazol-3-yl)-N-(6-methoxypyridazin-3-yl)-5-methyl-2-(1-methyl-1H-imidazol-2-yl)pyrrolo[2,1-f][1,2,4]triazin-4-amine], for which the inhibition at 20 µM came to 0%.

Turning to `COc1ccc(-c2cn3nc(-c4nccn4C)nc(Nc4cc(OC)ncn4)c3c2C)cn1` [Compound 66, 6-(6-Methoxypyridin-3-yl)-N-(6-methoxypyrimidin-4-yl)-5-methyl-2-(1-methyl-1H-imidazol-2-yl)pyrrolo[2,1-f][1,2,4]triazin-4-amine], the inhibition at 20 µM lay within 76 to 100%.

For `COc1cccc(-c2cn3nc(-c4nccn4C)nc(N[C@H]4C[C@H](OC)C4)c3c2-c2ccccc2)c1Cl` [Compound 32, 6-(2-Chloro-3-methoxyphenyl)-N-((1r,3r)-3-methoxycyclobutyl)-2-(1-methyl-1H-imidazol-2-yl)-5-phenylpyrrolo[2,1-f][1,2,4]triazin-4-amine], the inhibition at 20 µM is 1 to 25%.

`COc1cc(Nc2nc(-c3nccn3C)nn3cc(-c4cccnc4)c(C)c23)ncn1` [Compound 48, N-(6-Methoxypyrimidin-4-yl)-5-methyl-2-(1-methyl-1H-imidazol-2-yl)-6-(pyridin-3-yl)pyrrolo[2,1-f][1,2,4]triazin-4-amine]: the inhibition at 20 µM lay within 50 to 75%.

`COc1ccc(Nc2nc(-c3nccn3C)nn3cc(-c4ccn(C(C)C)n4)c(C)c23)cn1` [Compound 71, 6-(1-Isopropyl-1H-pyrazol-3-yl)-N-(6-methoxypyridin-3-yl)-5-methyl-2-(1-methyl-1H-imidazol-2-yl)pyrrolo[2,1-f][1,2,4]triazin-4-amine]: the inhibition at 20 µM lay in the range of 1 to 25%.

In the case of `CCn1ccc(-c2cn3nc(-c4nccn4C)nc(Nc4cc(OC)ncn4)c3c2C)n1` [Compound 64, 6-(1-Ethyl-1H-pyrazol-3-yl)-N-(6-methoxypyrimidin-4-yl)-5-methyl-2-(1-methyl-1H-imidazol-2-yl)pyrrolo[2,1-f][1,2,4]triazin-4-amine], the inhibition at 20 µM is 76 to 100%.

`COc1cccc(-c2cn3nc(-c4nccn4C)nc(N[C@H]4C[C@H](OC)C4)c3c2-c2ccccn2)c1F` [Compound 45, 6-(2-Fluoro-3-methoxyphenyl)-N-((1r,3r)-3-methoxycyclobutyl)-2-(1-methyl-1H-imidazol-2-yl)-5-(pyridin-2-yl)pyrrolo[2,1-f][1,2,4]triazin-4-amine]: the inhibition at 20 µM fell in the range of 26 to 49%.

Regarding `Cc1c(-c2ccn(C(C)C)n2)cn2nc(-c3nccn3C)nc(Nc3ccn(C(C)C)n3)c12` [Compound 72, N,6-bis(1-Isopropyl-1H-pyrazol-3-yl)-5-methyl-2-(1-methyl-1H-imidazol-2-yl)pyrrolo[2,1-f][1,2,4]triazin-4-amine], the inhibition at 20 µM was 50 to 75%.

Take `COc1cnc(Nc2nc(-c3nccn3C)nn3cc(-c4ccn(C(C)C)n4)c(C)c23)nc1` [Compound 56, 6-(1-Isopropyl-1H-pyrazol-3-yl)-N-(5-methoxypyrimidin-2-yl)-5-methyl-2-(1-methyl-1H-imidazol-2-yl)pyrrolo[2,1-f][1,2,4]triazin-4-amine]: the inhibition at 20 µM was in the range of 26 to 49%.

For the molecule `COCCO[C@H]1C[C@H](Nc2nc(-c3nccn3C)nn3cc(-c4cccc(OC)c4F)c(-c4ccccc4)c23)C1` [Compound 44, 6-(2-Fluoro-3-methoxyphenyl)-N-((1r,3r)-3-(2-methoxyethoxy)cyclobutyl)-2-(1-methyl-1H-imidazol-2-yl)-5-phenylpyrrolo[2,1-f][1,2,4]triazin-4-amine], the inhibition at 20 µM lay in the range of 26 to 49%.

With `COc1cccc(-c2cn3nc(-c4nccn4C)nc(N[C@H]4C[C@H](OC)C4)c3c2-c2ccccc2)c1F` [Compound 42, 6-(2-Fluoro-3-methoxyphenyl)-N-((1r,3r)-3-methoxycyclobutyl)-2-(1-methyl-1H-imidazol-2-yl)-5-phenylpyrrolo[2,1-f][1,2,4]triazin-4-amine], the inhibition at 20 µM fell in the range of 1 to 25%.

As to `Cc1c(-c2ccn(C(C)C)n2)cn2nc(-c3nccn3C)nc(Nc3nnc(C4CC4)o3)c12` [Compound 67, 5-Cyclopropyl-N-(6-(1-isopropyl-1H-pyrazol-3-yl)-5-methyl-2-(1-methyl-1H-imidazol-2-yl)pyrrolo[2,1-f][1,2,4]triazin-4-yl)-1,3,4-oxadiazol-2-amine], the inhibition at 20 µM was in the range of 26 to 49%.

Regarding `Cc1c(-c2ccn(C(C)C)n2)cn2nc(-c3nccn3C)nc(Nc3ccncc3)c12` [Compound 52, 6-(1-Isopropyl-1H-pyrazol-3-yl)-5-methyl-2-(1-methyl-1H-imidazol-2-yl)-N-(pyridin-4-yl)pyrrolo[2,1-f][1,2,4]triazin-4-amine], the inhibition at 20 µM fell in the range of 1 to 25%.

Take `COc1cncnc1Nc1nc(-c2nccn2C)nn2cc(-c3ccn(C(C)C)n3)c(C)c12` [Compound 73, 6-(1-Isopropyl-1H-pyrazol-3-yl)-N-(5-methoxypyrimidin-4-yl)-5-methyl-2-(1-methyl-1H-imidazol-2-yl)pyrrolo[2,1-f][1,2,4]triazin-4-amine]: the inhibition at 20 µM is 50 to 75%.

Turning to `Cc1c(-c2ccn(C(C)C)n2)cn2nc(-c3nccn3C)nc(Nc3cc(C4CC4)n[nH]3)c12` [Compound 68, N-(3-Cyclopropyl-1H-pyrazol-5-yl)-6-(1-isopropyl-1H-pyrazol-3-yl)-5-methyl-2-(1-methyl-1H-imidazol-2-yl)pyrrolo[2,1-f][1,2,4]triazin-4-amine], the inhibition at 20 µM was 76 to 100%.

Turning to `Cc1c(-c2ccn(C(C)C)n2)cn2nc(-c3nccn3C)nc(Nc3ccn(C)n3)c12` [Compound 61, 6-(1-Isopropyl-1H-pyrazol-3-yl)-5-methyl-2-(1-methyl-1H-imidazol-2-yl)-N-(1-methyl-1H-pyrazol-3-yl)pyrrolo[2,1-f][1,2,4]triazin-4-amine], the inhibition at 20 µM fell in the range of 76 to 100%.

As to `Cc1c(-c2ccn(C(C)C)n2)cn2nc(-c3nccn3C)nc(Nc3cc(C4CC4)no3)c12` [Compound 69, 3-Cyclopropyl-N-(6-(1-isopropyl-1H-pyrazol-3-yl)-5-methyl-2-(1-methyl-1H-imidazol-2-yl)pyrrolo[2,1-f][1,2,4]triazin-4-yl)isoxazol-5-amine], the inhibition at 20 µM turned out to be 0%.
